Read-outs that look alike come from different tables or passages of the source.
Assays:
[1] = HPLC stability studies at physiological temperature and pH; assay type: physicochemical; settings: 500 μM in 50 mM Tris pH 7.5, 1 mM DTT, 37° C.
Experimental: To validate the installation of an N-acetyl as a non-hydrolyzable substitution, the stabilities of both 2′- and 3′-NAADPr were evaluated at physiological temperature and pH using conditions previously described (Borra et al., 2002, J. Biol. Chem. 277: 12632-12641). […] HPLC analysis of both 2′- and 3′-NAADPr using exact conditions indicated negligable decomposition (<1%) over 3 days and confirmed the stability of the acetyl funcitonality to spontaneous hydrolysis at physiological pH.
Reactions were carried out with both analogs (final concentration of 500 μM) in 50 mM Tris (pH 7.5 at 37° C.) containing 1 mM DTT. Samples were incubated at 37° C. over 3 days and four time points were collected (0, 24, 48, and 72 h). Each sample was quenched with H2O containing 0.05% TFA and analyzed by HPLC (analytical C18) using the method described in general procedures. Each trace was integrated (Shimadzu EZStart version 7.2.1 SP1) to determine peak area and analog percentage is shown in the following table 1. Both 2′- and 3′-NAADPr contained trace impurities at 12.9 and 12.5 min respectively and contributed to the observed degradation products visible at 23.3 min in each study.

human macroH2A1.1 domain [2] = target: T1, human macroH2A1.1 domain (Homo sapiens, UniProt O75367); settings: calorimetry, Kustatcher et al., 2005; cited from earlier work
T1 sequence (O75367 184-367 limits assumed): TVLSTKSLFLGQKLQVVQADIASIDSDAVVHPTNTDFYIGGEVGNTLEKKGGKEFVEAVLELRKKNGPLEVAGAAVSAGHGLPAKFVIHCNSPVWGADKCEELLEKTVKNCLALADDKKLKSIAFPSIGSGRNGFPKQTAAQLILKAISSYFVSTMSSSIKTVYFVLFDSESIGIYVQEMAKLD

mNudT5 = mNudT5 (Mus musculus, UniProt Q9JKX6); settings: in vitro (Rafty et al., 2002); cited from earlier work
Chain of mNudT5 (Q9JKX6 whole entry): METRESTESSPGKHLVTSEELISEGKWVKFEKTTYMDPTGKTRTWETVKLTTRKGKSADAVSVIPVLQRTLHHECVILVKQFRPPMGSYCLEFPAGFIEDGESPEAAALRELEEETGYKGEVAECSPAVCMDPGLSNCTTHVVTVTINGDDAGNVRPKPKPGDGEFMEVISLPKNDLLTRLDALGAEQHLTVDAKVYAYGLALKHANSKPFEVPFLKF

YSA1 [3] = target: T2, YSA1 (Saccharomyces cerevisiae, UniProt Q01976); settings: in vitro (Rafty et al., 2002); cited from earlier work
T2 sequence (Q01976 1-231): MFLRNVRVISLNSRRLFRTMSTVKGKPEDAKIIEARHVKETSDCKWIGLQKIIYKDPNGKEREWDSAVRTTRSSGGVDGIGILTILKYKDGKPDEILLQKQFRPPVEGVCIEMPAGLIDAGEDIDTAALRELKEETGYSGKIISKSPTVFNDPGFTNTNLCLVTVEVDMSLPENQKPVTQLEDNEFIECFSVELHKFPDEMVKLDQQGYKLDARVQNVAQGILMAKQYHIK

NudT9 [4] = target: T3, NudT9 (Homo sapiens, UniProt Q9BW91); settings: in vitro (Rafty et al., 2002); cited from earlier work
T3 sequence (Q9BW91 47-350): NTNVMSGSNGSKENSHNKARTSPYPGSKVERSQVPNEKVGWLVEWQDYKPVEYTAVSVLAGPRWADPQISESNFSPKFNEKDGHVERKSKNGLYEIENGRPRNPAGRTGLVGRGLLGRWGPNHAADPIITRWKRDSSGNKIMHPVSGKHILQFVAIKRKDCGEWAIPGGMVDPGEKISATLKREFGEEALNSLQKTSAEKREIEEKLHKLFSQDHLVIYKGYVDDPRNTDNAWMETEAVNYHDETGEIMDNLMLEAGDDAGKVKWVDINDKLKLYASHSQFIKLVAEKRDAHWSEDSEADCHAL

[5] = within 3 h, physiological temperature and pH (Borra et al., 2002); cited from earlier work
YSA1 [6] = target: T2, YSA1; assay: Nudix hydrolase hydrolysis by YSA1 (Michaelis-Menten); assay type: biochemical, yeast; settings: substrate 5-300 μM, YSA1 10 ng
Experimental: (§1) The Nudix hydrolases, mNudT5 and YSA1, and NudT9 are a family of ADPr metabolizing enzymes. […] Reaction mixtures containing ADPr (5-300 μM) were incubated with NudT9 (100 ng) or YSA1 (10 ng). Michaelis-Menten plots were generated for the hydrolysis of ADPr by NudT9 and YSA1. […] The hydrolysis of 2′- and 3′-NAADPr is evaluated using a protocol similar to that described by Rafty.

human macroH2A1.1 domain [7] = target: T1, human macroH2A1.1 domain; assay: MacroH2A1.1 binding (calorimetry); settings: method similar to Kustatcher
Excerpt: (§2) MacroH2A1.1 is an atypical histone variant associated with heterochromatin and implicated in transcriptional repression. […] The splice-variant MacroH2A1.2 was also studied, but no binding of ADPr was observed. The binding of 2′- and 3′-NAADPr may be evaluated using a protocol similar to that described by Kustatcher.

[8] = target: splice-variant MacroH2A1.2 (Homo sapiens, UniProt O75367); assay: MacroH2A1.2 binding (calorimetry); settings: method similar to Kustatcher
Chain of splice-variant MacroH2A1.2 (O75367 1-372 isoform O75367-1): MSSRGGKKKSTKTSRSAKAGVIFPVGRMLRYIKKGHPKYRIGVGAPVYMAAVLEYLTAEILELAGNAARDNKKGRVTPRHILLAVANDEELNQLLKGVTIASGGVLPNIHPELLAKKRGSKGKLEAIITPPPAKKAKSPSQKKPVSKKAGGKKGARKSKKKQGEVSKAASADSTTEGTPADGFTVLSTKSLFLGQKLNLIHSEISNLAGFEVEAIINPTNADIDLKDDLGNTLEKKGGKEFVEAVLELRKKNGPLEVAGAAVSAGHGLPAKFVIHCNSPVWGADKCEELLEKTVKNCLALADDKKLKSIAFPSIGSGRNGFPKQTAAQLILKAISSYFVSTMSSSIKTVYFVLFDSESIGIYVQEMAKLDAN
Excerpt: as §2

NudT9 [9] = target: T3, NudT9; assay: Nudix hydrolase hydrolysis by NudT9 (Michaelis-Menten); assay type: biochemical; settings: substrate 5-300 μM, NudT9 100 ng
Experimental: as §1

## 3′-N-Acetyl-ADP-ribose [3′-NAADPr]
[1]; 0 h
  analog percentage (HPLC peak area): 95.7%
[1]; 24 h
  analog percentage (HPLC peak area): 98.2%
[1]; 48 h
  analog percentage (HPLC peak area): 98.0%
[1]; 72 h
  analog percentage (HPLC peak area): 98.0%

## O-Acetyl-ADP-ribose [OAADPr]
Human macroH2A1.1 domain [2]
  Kd: ~2000 nM
  enthalpy: -17.8 kcal/mol
mNudT5
  hydrolysis to AMP and acetylated ribose 5′-phosphate: efficiently hydrolyze
YSA1 [3]
  hydrolysis to AMP and acetylated ribose 5′-phosphate: efficiently hydrolyze
NudT9 [4]
  hydrolysis efficiency, less efficient as compared to ADPr: 500 fold
[5]
  hydrolyzed to ADPr: approximately 18%

## CC(=O)NC1C(O)O[C@H](COP(=O)(O)OP(=O)(O)OC[C@H]2O[C@@H](n3cnc4c(N)ncnc43)C(O)C2O)[C@@H]1O (stereo partly drawn) [2′-NAADPr, 2′-N-Acetyl-ADP-ribose]
[1]; 0 h
  analog percentage (HPLC peak area): 98.7%
[1]; 24 h
  analog percentage (HPLC peak area): 98.7%
[1]; 48 h
  analog percentage (HPLC peak area): 98.2%
[1]; 72 h
  analog percentage (HPLC peak area): 98.3%

## Nc1ncnc2c1ncn2[C@@H]1O[C@H](COP(=O)(O)OP(=O)(O)OC[C@H]2OC(O)[C@H](O)[C@@H]2O)[C@@H](O)[C@H]1O (stereo partly drawn) [ADPr, ADP-ribose]
YSA1 [6]
  Km: 39.9 µM
  kcat: 6.5 s⁻¹
Human macroH2A1.1 domain [7]
  Kd: 2400 nM
  enthalpy: -15.4 kcal/mol
[8]
  binding: no binding
NudT9 [9]
  Km: 23.9 µM
  kcat: 9.3 s⁻¹

From patent US20070225246A1, “O-acetyl-ADP-ribose non-hydrolyzable analogs” (priority 2006, published 2007)
